The target in one series is human AMY1 receptor (Homo sapiens, UniProt O60894+P30988). In words: hAMY1 cAMP functional assay (HTRF). The format is cell-based. On the procedure:
The AMY1 and CT receptors are GPCRs that are functionally coupled to Gαs proteins. Stimulation of these receptors results in an increased production of intracellular cAMP, which can be detected using standard in vitro technologies. Human AMY1 or CT receptors are stably expressed in human urinary bladder cells (UM-UC-3) cells under control of a pcDNA (CALCR) or pCMV piggybac (RAMP1) expression vector. AMY1 cells are cultured in MEM 1X (Corning) supplemented with 10% FBS, 1% antibiotic/antimycotic solution, 1 mM sodium pyruvate, 1X MEM NEAA, 1X GlutaMAX-I, 200 μg/mL hygromycin B, and 0.4 μg/mL puromycin. CT cells are cultured in the same medium except that it lacks the puromycin. Cultured cells are grown to 70% confluency, and then incubated overnight with fresh medium.
On the assay day, 10 μL of assay buffer (phenol red free MEM (Corning, cat #17-305-CV), 0.1% casein, 0.5 mM IBMX, 5 mM HEPES, pH 7.4) is dispensed into each well of white poly-D-lysine coated 384-well plates (Corning cat #354661). […]
The amount of intracellular cAMP is quantitated using HTRF technology (Homogeneous Time Resolved Fluorescence; Cisbio) as per vendor instructions. […] The HTRF signal is immediately detected using an Envision plate reader (Perkin-Elmer) to calculate the ratio of fluorescence at 665 to 620 nm. […]
In general terms: TR-FRET usually uses a lanthanide donor and a delayed reading to cut background.

Another series has as its target T1, human CT receptor (Homo sapiens, UniProt P30988).
T1 sequence (P30988 25-474): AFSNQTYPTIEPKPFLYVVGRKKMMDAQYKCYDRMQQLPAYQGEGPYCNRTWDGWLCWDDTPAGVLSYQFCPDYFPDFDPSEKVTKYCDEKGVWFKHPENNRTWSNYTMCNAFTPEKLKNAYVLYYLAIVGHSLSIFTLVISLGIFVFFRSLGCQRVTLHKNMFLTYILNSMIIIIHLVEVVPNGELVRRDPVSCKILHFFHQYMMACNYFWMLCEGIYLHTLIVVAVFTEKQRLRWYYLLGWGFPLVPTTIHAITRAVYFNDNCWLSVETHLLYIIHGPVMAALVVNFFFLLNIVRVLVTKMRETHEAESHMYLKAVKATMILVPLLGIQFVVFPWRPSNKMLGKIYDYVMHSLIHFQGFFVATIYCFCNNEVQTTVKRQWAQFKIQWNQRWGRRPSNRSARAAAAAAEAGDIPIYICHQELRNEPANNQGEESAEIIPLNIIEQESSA
In words: hCT cAMP functional assay (HTRF). Format: cell-based.

The nature of series [1]: Monkey pharmacokinetics, single subcutaneous dose. To be noted: cynomolgus monkey, plasma, sc, 20 nmol/kg, single 20 nmol/kg SC. The format is in vivo. As to the method:
(§1) Plasma concentration of Compound II is determined by a qualified Liquid Chromatography Mass Spectrometry (LC/MS) method at Q Squared Solutions BioSciences LLC, Ithaca, N.Y. Compound II and an analog as an internal standard are extracted from 100% species-specific plasma using protein precipitation followed by solid phase extraction. The intact mass of Compound II which includes peptide plus acyl chain is detected by a Q-Exactive Orbitrap™ mass spectrometer.
In a monkey pharmacokinetics study, male and female Cynomolgus monkeys are administered a single subcutaneous dose of 20 nmol/kg (0.084 mg/kg) of Compound II in Tris-mannitol buffer (pH 8.0) at a volume of 0.2 mL/kg. Blood is collected predose and at 1, 3, 6, 12, 24, 48, 72, 96, 120, 144, 168, 240, 336, 408, 504 hours postdose for pharmacokinetic characterization.

Series [2] can be described thus: Rat pharmacokinetics, single subcutaneous dose. Format: in vivo. Particulars: male, Sprague Dawley, plasma, sc, 20 nmol/kg, single 20 nmol/kg SC. On the procedure:
as §1
In a rat pharmacokinetic study, male Sprague Dawley rats are administered a single subcutaneous dose of 20 nmol/kg (0.084 mg/kg) of Compound II in Tris-mannitol buffer (pH 8.0) at a volume of 0.2 mL/kg. Blood is collected at 1-, 3-, 6-, 12-, 24-, 48-, 72-, 96-, 120-, and 144-hours post-dose for pharmacokinetic characterization.

Series [3] has as its system Primary human dendritic cells.
The conditions of series [4]: background statement; cited from earlier work.

Results on two molecules are retold here after patent publication US12558430B2, “Dual amylin and calcitonin receptor agonists and uses thereof” (Eli Lilly and Company, priority 2020, dated 2026).

Read-outs that look alike come from different tables or passages of the source. Starred links: 1 amine or outer side, 2 acyl side, 3 side chain; linkers in the order of their positions; H or OH if unused. Non-standard residues stand in square brackets, D forms with d. Residues, ends and D or L forms follow the SMILES beside them. Groups on a side chain read outwards from the residue. *: point of attachment. C20 diacid = O=C(O)CCCCCCCCCCCCCCCCCCC(=O)*; γGlu = O=C(O)[C@H](CCC(=O)[*:2])N[*:1]; AEEA = NCCOCCOCC(=O)O; Aib = CC(C)(N)C(=O)O

As usually defined, the EC50 is the concentration that produces a half-maximal response. In general, AUC(0-inf) refers to the area under the concentration-time curve extrapolated to infinity. A word on the CL/F: it is clearance divided by bioavailability, as obtained after extravascular dosing. Broadly, the Cmax is the maximum level reached in the sampled fluid or tissue. A word on the Tmax: it is the time from dosing to the highest level. As usually defined, the half-life is the time in which the quantity being followed falls by half.

human AMY1 receptor, sequence (O60894 27-148, one chain of several): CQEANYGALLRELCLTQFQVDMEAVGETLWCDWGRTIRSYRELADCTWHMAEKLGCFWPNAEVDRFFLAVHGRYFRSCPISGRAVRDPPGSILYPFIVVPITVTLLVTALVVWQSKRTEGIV
Procedure for CD4+ T cells: Cryopreserved PBMCs were used from ten healthy donors and the CD8+ T cells were depleted from the PBMCs and labeled with 1 μM Carboxyfluorescein Diacetate Succinimidyl Ester (CFSE). […] Cells were cultured and incubated for 7 days at 37° C. with 5% CO2. On day 7, samples were stained with the following cell surface markers: anti-CD3, anti-CD4, anti-CD14, anti-CD19, and DAPI for viability detection by flow cytometry using a BD LSRFortessa™, equipped with a High Throughput Sampler (HTS). Data was analyzed using FlowJo® Software (FlowJo, LLC, TreeStar) and a Cellular Division Index (CDI) was calculated. Briefly, the CDI for each test candidate's MAPPs-derived peptide cluster was calculated by dividing the percent of proliferating CFSE^dimCD4+ T cells from peptide-stimulated wells by the percent of proliferating CFSE^dimCD4+ T cells in the unstimulated wells. A CDI of ≥2.5 was considered to represent a positive response. A percent donor frequency across all donors was evaluated.
Procedure for human CT receptor: The AMY1 and CT receptors are GPCRs that are functionally coupled to Gαs proteins. […] Human AMY1 or CT receptors are stably expressed in human urinary bladder cells (UM-UC-3) cells under control of a pcDNA (CALCR) or pCMV piggybac (RAMP1) expression vector. AMY1 cells are cultured in MEM 1X (Corning) supplemented with 10% FBS, 1% antibiotic/antimycotic solution, 1 mM sodium pyruvate, 1X MEM NEAA, 1X GlutaMAX-I, 200 μg/mL hygromycin B, and 0.4 μg/mL puromycin. CT cells are cultured in the same medium except that it lacks the puromycin. Cultured cells are grown to 70% confluency, and then incubated overnight with fresh medium.
Peptides diluted in DMSO are added (200 nL/well) in a 1:3 dilution series using ECHO acoustic liquid handler (Beckman). Cultured cells are detached with TrypLE Express (Gibco), resuspended in assay buffer, and 10 μL containing 1200 cells/well (hCT) or 1500 cells/well (hAMY1) are dispensed into each well. The plates are incubated at room temperature for 1 hour.
The amount of intracellular cAMP is quantitated using HTRF technology (Homogeneous Time Resolved Fluorescence; Cisbio) as per vendor instructions. Briefly, 10 μL cAMP-d2 conjugate and 10 μL anti-cAMP-cryptate conjugate in lysis buffer are incubated with the treated cells at room temperature for 60 min. […]

The molecule `CC(=O)N[C@@H](C)C(=O)N[C@@H](CO)C(=O)N[C@@H](Cc1c[nH]cn1)C(=O)N[C@@H](CC(C)C)C(=O)N[C@@H](CO)C(=O)N[C@H](C(=O)N[C@@H](C)C(=O)N[C@H](C(=O)N[C@@H](CC(C)C)C(=O)NCC(=O)N[C@@H](CCCCNC(=O)COCCOCCNC(=O)COCCOCCNC(=O)CC[C@H](NC(=O)CCCCCCCCCCCCCCCCCCC(=O)O)C(=O)O)C(=O)N[C@@H](CC(C)C)C(=O)N[C@@H](CO)C(=O)NC(C)(C)C(=O)N[C@@H](CCC(=O)O)C(=O)N[C@@H](CC(C)C)C(=O)N[C@@H](Cc1c[nH]cn1)C(=O)N[C@@H](CCCCN)C(=O)N[C@@H](CC(C)C)C(=O)N[C@@H](CCC(=O)O)C(=O)N[C@@H](CC(=O)O)C(=O)N[C@@H](Cc1ccc(O)cc1)C(=O)N1CCC[C@H]1C(=O)N[C@@H](CCCNC(=N)N)C(=O)N[C@H](C(=O)N[C@@H](CC(=O)O)C(=O)N[C@H](C(=O)NCC(=O)N[C@@H](C)C(=O)N[C@@H](CCC(=O)O)C(=O)N[C@@H](CO)C(=O)N1CCC[C@H]1C(N)=O)C(C)C)[C@@H](C)O)C(C)C)[C@@H](C)O` [Compound II] (Ac-ASHLSTAVLGK([AEEA-AEEA-γGlu-C20 diacid])LS[Aib]ELHKLEDYPRTDVGAESP-NH2) showed an EC50 at human AMY1 receptor of 0.0494 ± 0.00514 nM. Besides, the EC50 at human CT receptor was found to be 0.0409 ± 0.0147 nM. In series [1] (both sexes, Mean), the AUC(0-inf) was found to be 47.5 µM·h, the CL/F is 0.42 mL/h/kg, the Cmax came out at 168 nM and the time to peak (Tmax) is 42 h. Also, in series [1] (both sexes, Mean), the half-life is 178 h. In series [1] (animal P0001), the AUC(0-inf) came out at 50.4 µM·h, the CL/F is 0.4 mL/h/kg, the Cmax worked out at 198 nM and the Tmax came out at 12 h. Also, the half-life in series [1] (animal P0001) was 185 h. Moreover, in series [1] (animal P0101), the AUC(0-inf) came to 44.7 µM·h, the CL/F was 0.45 mL/h/kg, the Cmax stood at 138 nM and the Tmax is 72 h. The molecule also had a half-life in series [1] (animal P0101) of 170 h. Further, in series [2] (Mean), the AUC(0-inf) was 8.59 µM·h, the CL/F was 2.33 mL/h/kg, the highest level (Cmax) was 90 nM and the Tmax came to 24 h. Further, the half-life in series [2] (Mean) is 58 h. In series [2] (animal R0001), the AUC(0-inf) was determined as 8.41 µM·h, the apparent clearance (CL/F) is 2.38 mL/h/kg, the Cmax amounted to 88 nM and the time to peak (Tmax) amounted to 48 h. The half-life in series [2] (animal R0001) was 47 h. In series [2] (animal R0002), the AUC(0-inf) stood at 8.7 µM·h, the CL/F is 2.3 mL/h/kg, the concentration peaked (Cmax) at 81 nM and the time to peak (Tmax) turned out to be 12 h. The half-life in series [2] (animal R0002) is 60 h. Also, in series [2] (animal R0003), the AUC(0-inf) amounted to 8.65 µM·h, the CL/F is 2.31 mL/h/kg, the Cmax was found to be 99 nM and the Tmax was 12 h. The molecule also gave a half-life in series [2] (animal R0003) of 67 h. For the same molecule, in series [3], the “# of clusters” value came out at 0, the “% Donors (displaying non-germline residues)” value is given as 0% and the “immunogenicity risk (MAPPs)” value was “low level of immunogenicity risk”. Moreover, in the series with CD4+ T cells, the “% Positive Donors” value was determined as 12.5%, the “CDI Range High” value amounted to 19.7, the “CDI Range Low” value stood at 0.7 and the “Median CDI (All donors)” value turned out to be 1.0. In the series with CD4+ T cells, the “Median CDI (Positive Donors)” value is listed as 19.7, the “Number of donors (positive/tested)” value is on record as 1/8 and the “immunogenicity risk (T cell proliferation)” value was “low level of immunogenicity risk”.

Salmon calcitonin: in series [4], the half-life entry was “less than two hours”.
